Experimental data from PMC11204762, “Purification and Structural Analyses of Sulfated Polysaccharides from Low-Value Sea Cucumber Stichopus naso and Anticoagulant Activities of Its Oligosaccharides” (Marine Drugs, 2024).
“And” between values parts separate entries of the source, which are not always exact repeats. Equal entries are not always repeated.

Legend:
[1] = target: T1, intrinsic factor Xase complex (iXase, VIIIa-IXa-PL-Ca2+ complex) (Homo sapiens, UniProt P00740); assay: Inhibition of iXase: chromogenic substrate assay, BIOPHEN FVIII:C kit and recombinant human factor VIII; assay type: biochemical; conditions: IC50 ± SE (n = 2)
T1 construct: intrinsic factor Xase complexes (iXase, VIIIa-IXa-PL-Ca^2+ complex); purchased BIOPHEN FVIII:C (assay kit)
T1 sequence (P00740 47-191 limits assumed): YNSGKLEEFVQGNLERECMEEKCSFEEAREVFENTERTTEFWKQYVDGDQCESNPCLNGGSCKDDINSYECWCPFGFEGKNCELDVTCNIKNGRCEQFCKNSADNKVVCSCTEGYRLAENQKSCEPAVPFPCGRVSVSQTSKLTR
T1 sequence (P00740 227-461 limits assumed): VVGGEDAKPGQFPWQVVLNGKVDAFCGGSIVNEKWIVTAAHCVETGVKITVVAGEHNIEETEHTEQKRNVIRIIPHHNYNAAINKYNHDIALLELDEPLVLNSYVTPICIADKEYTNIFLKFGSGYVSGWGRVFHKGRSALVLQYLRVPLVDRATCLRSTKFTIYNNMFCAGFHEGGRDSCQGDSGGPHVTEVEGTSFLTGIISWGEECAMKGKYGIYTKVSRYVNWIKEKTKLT
Description: Inhibition of iXase was assessed using the chromogenic substrate assay and the FVIII assay kit BIOPHEN FVIII:C: containing R1 (FX), R2 (Activation Reagent), and R3 (SXa-11) and recombinant human factor VIII (FVIII). A total of 30 μL of each sample was added to the 96-well plate, followed by 30 μL of R2 and 30 μL of FVIII solution (2 IU/mL), and the place was placed in the microplate reader. The plates were mixed and incubated at 37 °C for 2 min. Then, 30 μL of R1 was added to mix and incubated at 37 °C for 1 min, and finally, 30 μL of R3 was added. The absorbance value at 405 nm (OD405nm) was recorded via a microplate reader, and continuous reading was performed for 2min at 15 s intervals. The experiments were performed in duplicate. The average value of OD405nm was linearly fitted to time, and the slope (the rate of change in absorbance value ΔOD405nm/min) corresponded to the iXase activity.
(§1) Activities of natural HfFG (FG from H. fuscopunctata) and its oligosaccharides oHG-8, oHG-11, oHG-14, and oHG-17 were simultaneously detected for comparison.

[2] = test system: intrinsic coagulation pathway (APTT of human plasma); assay: Anticoagulant activity: APTT with a coagulometer, APTT reagent and standard human plasma; assay type: biochemical; conditions: for 2APTT: concentration required to double the APTT of human plasma (EC2.0×): standard human plasma, EC2.0× ± SD (n = 2)
Description: The anticoagulant activities of natural SnFG and its oligosaccharides 3, 4, 5, and 6 were assessed using a coagulometer (TECO, MC-2000) using APTT reagents and standard human plasma, according to a previous method. Briefly, 5 μL of a series of concentrations of the samples was added to a standard preheated to 37 °C and another 45 μL of standard human plasma was added for co-incubation at 37 °C for 2 min, followed by the addition of 50 μL of APTT reagent for incubation for another 3 min. Subsequently, 50 μL of CaCl2 (0.02 M) was added and the timer was started.
as §1

Anti-iXase: concentration required to inhibit 50% Xase activity (IC50) [1] [µg/mL]	Substance	fold stronger than oHG-8 in APTT prolongation (EC2.0×) ([2]; EC2.0× 20.94 vs. 32.35 μg/mL)	2APTT: concentration required to double the APTT of human plasma (EC2.0×) [2]
0.335 ± 0.02473	L-Fuc2S4S-α(1,3)-L-Δ^4,5HexA-α(1,3)-D-GalNAc4S6S-β(1,4)-[L-Fuc2S4S-α(1,3)]-D-GlcA-β(1,3)-D-GalNAc4S6S-β(1,4)-[L-Fuc2S4S-α(1,3)]-D-GlcA-ol [compound 3]	about 1.5 fold	20.94 µg/mL and 20.94 ± 0.27 µg/mL
0.08444 ± 0.00799	enoxaparin [LMWH, reference compound]		7.46 ± 0.02 µg/mL
